Measurements: patent US7534898B2, “Process for producing monatin or salt thereof” (Ajinomoto Co., Inc., priority 2004, dated 2009)

Assays:
[1] = cited from earlier work; for intensity as a sweetener (strength of sweetness): comparison among the four optical isomers of monatin, Patent Document 5
[2] = solubility in ethanol (crystallization with ethanol as poor solvent); format: physicochemical; conditions: compared with (2R,4R) monatin
Excerpt: It is also possible to efficiently separate the steric isomers by utilizing the difference in solubility of (2S,4R) monatin and (2R,4R) monatin or of (2R,4S) monatin and (2S,4S) monatin in ethanol. […] Therefore, before crystallization of (2R,4R) monatin (salt), (2S,4R) monatin is firstly crystallized and the resulting crystals are removed. […] In case crystals of (2S,4R) monatin are previously removed by means of crystallization, it is possible to efficiently remove (2S,4R) monatin from the reaction solution when the crystallizing temperature is set at as high as about 70 to 80° C. and the crystals prepared by the crystallization are preferably filtered when they are still at high temperature. In addition, the crystals of (2R,4R) monatin (salt) prepared may be recrystallized the same as above for making the purity higher. The above is also the same in the case of (2R,4S) monatin and (2S,4S) monatin.

**Q.** Which “intensity as a sweetener (strength of sweetness)” value [1] does the source give for N[C@H](C[C@@](O)(Cc1c[nH]c2ccccc12)C(=O)O)C(=O)O (stereo in doubt) [(2R,4R) monatin, 4-hydroxy-4-(3-indolylmethyl)-2-aminoglutaric acid] here?
**A.** The value was “far better in terms of intensity as a sweetener”.

**Q.** Which “intensity as a sweetener (strength of sweetness)” value [1] does the source give for N[C@@H](C[C@@](O)(Cc1c[nH]c2ccccc12)C(=O)O)C(=O)O (stereo in doubt) [(2R,4S) monatin, 4-hydroxy-4-(3-indolylmethyl)-2-aminoglutaric acid] here?
**A.** The value was “far better in terms of intensity as a sweetener”.

**Q.** What does the source list for N[C@@H](C[C@@](O)(Cc1c[nH]c2ccccc12)C(=O)O)C(=O)O (stereo in doubt) [(2S,4R) monatin, 4-hydroxy-4-(3-indolylmethyl)-2-aminoglutaric acid]?
**A.** solubility in ethanol [2]: low as compared with (2R,4R) monatin; intensity as a sweetener (strength of sweetness) [1]: lower strength of sweetness

**Q.** Which results are given for N[C@@H](C[C@@](O)(Cc1c[nH]c2ccccc12)C(=O)O)C(=O)O (stereo in doubt) [(2S,4S) monatin, 4-hydroxy-4-(3-indolylmethyl)-2-aminoglutaric acid]?
**A.** sweet taste relative to sucrose ([1]; compared with sucrose, Patent Document 1): several hundred times as sweet as sucrose; intensity as a sweetener (strength of sweetness) [1]: lower strength of sweetness
